Earlier results, collected in patent US7904011B2, “Temperature control unit and image forming apparatus including same” (Ricoh Company, Ltd., priority 2007, dated 2011).

Settings: in vivo

Point of comparison: [Cl-].[Na+] [salt, reference compound], “acute oral toxicity LD50” value 3000 mg/kg. Against it:
- CCOCCOC(=O)CCC(=O)OCCOCC [diethoxyethyl succinate] — 1.7-fold higher, 5000 mg/kg
- CC1COC(=O)O1 (stereo not drawn) [propylene carbonate] — 9.7-fold higher, 29000 mg/kg
